The source of these data is patent US20120172386A1, “Combinations Comprising a VEGF Receptor Inhibitor” (NOVARTIS AG, priority 2005, published 2012).

In general, IC50 refers to the concentration needed to halve the response being measured. Broadly, the melting point is the temperature of the solid-liquid transition.

Data set [1] concerns the target VEGF-R2 (KDR) (Homo sapiens, UniProt P35968). The data set is described as follows: Inhibition of the tyrosine kinase activity of VEGF-R2 (KDR). The format is biochemical. On the procedure:
Inhibition of the Tyrosine Kinase Activity of VEGF-R2 (KDR)
The inhibition test is carried out as described above.

Data set [2] in a line: Percutaneous penetration/permeation in static Franz-type diffusion cells with split-thickness human cadaver skin. The format is in vitro ADME. The note with it: batch of skin 4.
Test in data set [3]: as above
The format is in vitro ADME. The note with it: solution a (propylene glycol); batch of skin 4. On the procedure: Frozen human dorsal cadaver skin (Caucasian; back skin) was obtained from the National Disease Research Interchange, Philadelphia, USA. Skin from three different donors was used;
Thawed skin samples were dermatomed to 0.7 mm with an Aesculap dermatome to obtain “split-thickness” skin.
Percutaneous penetration was studied in vitro by means of static Franz-type diffusion cells with phosphate buffered saline/fetal calf serum 2:1 as receptor fluid at 32° in triplicates for 48 hours. The compounds were applied as 1% solutions (300 μl each) in propylene glycol (solution a) or in propylene glycol/oleyl alcohol 9:1 (solution b). Samples of 100 μl were taken 5 to 7 times and replaced by fresh receptor fluid as described previously (Schmook, et al., Skin Pharmacol. 1993, 6:116-124).
Drug analysis was performed with specimens of the exposed skin (at the end of the 48 hours experiment), from which the stratum corneum had been removed by 20 strippings with an adhesive tape. The weighed skin samples were homogenized in 0.2 M ammonium phosphate buffer (pH 7.0). The homogenates were extracted with ethyl acetate and processed as described (Schmook, et al 1993).

Where [4] appears, read: solution c (propylene glycol containing 0.1% DMSO).
The mark [5] stands for this setting: solution d (propylene glycol containing 1% DMSO).

Chain of VEGF-R2 (KDR) (P35968 20-1356, species assumed): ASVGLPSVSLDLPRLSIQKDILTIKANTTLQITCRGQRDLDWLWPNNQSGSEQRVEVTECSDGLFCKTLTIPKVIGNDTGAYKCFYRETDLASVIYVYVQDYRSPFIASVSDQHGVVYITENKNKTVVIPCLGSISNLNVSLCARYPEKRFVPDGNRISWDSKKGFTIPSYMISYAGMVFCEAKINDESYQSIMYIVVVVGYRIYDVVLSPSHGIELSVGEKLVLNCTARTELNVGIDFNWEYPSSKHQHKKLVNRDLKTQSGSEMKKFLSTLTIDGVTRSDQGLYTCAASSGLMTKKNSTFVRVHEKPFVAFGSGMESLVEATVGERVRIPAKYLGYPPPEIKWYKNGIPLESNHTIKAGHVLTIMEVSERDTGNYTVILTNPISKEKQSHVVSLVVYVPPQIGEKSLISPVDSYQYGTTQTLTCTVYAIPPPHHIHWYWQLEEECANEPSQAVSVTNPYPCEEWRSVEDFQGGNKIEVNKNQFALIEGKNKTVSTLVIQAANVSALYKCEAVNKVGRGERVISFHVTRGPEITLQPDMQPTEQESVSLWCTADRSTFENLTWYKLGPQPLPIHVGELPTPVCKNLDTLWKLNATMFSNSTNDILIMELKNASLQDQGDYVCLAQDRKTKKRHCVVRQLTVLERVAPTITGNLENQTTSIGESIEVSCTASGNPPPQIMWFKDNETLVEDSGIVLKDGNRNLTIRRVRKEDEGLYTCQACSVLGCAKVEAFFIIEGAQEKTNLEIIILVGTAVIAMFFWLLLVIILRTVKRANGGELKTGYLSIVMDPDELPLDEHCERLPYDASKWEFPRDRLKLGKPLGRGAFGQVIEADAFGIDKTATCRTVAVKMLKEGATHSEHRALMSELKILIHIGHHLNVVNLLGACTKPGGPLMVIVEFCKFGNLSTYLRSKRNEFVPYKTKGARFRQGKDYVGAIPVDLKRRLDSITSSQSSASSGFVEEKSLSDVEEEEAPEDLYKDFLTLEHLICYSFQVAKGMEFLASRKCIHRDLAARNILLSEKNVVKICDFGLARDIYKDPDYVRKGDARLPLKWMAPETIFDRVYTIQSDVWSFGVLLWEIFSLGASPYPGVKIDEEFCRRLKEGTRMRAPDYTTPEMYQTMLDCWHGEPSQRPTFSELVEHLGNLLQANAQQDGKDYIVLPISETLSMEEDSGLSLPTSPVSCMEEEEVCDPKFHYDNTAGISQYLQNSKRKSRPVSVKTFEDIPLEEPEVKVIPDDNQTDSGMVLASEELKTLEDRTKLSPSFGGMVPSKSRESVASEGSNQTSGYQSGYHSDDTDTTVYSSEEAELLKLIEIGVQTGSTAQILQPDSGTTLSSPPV

Take `Nc1nccc(Oc2ccc3c(c2)OCCN3C(=O)Nc2ccc(C(F)(F)F)c(C(F)(F)F)c2)n1` [12a)]: the IC50 in data set [1] is 52 nM.

Take `Nc1nccc(Oc2ccc3c(c2)OCCN3C(=O)Nc2ccc(Cl)c(C(F)(F)F)c2)n1` [12b)]: in data set [1], the 50% inhibitory concentration (IC50) was 10 nM.

In data set [1], `Nc1nccc(Oc2ccc3c(c2)OCCN3C(=O)Nc2ccc(F)c(C(F)(F)F)c2)n1` [12d)] showed an IC50 of 73 nM.

`Cc1ccc(NC(=O)N2CCOc3cc(Oc4ccnc(N)n4)ccc32)cc1C(F)(F)F` [12f), 7-(2-amino-pyrimidin-4-yloxy)-2,3-dihydro-benzo[1,4]oxazine-4-carboxylic acid (4-methyl-3-trifluoromethyl-phenyl)-amide]: in data set [1], 17 nM corresponded to half-maximal inhibition (IC50).

Take `Nc1nccc(Oc2ccc3c(C(=O)Nc4ccc(C(F)(F)F)cc4)cccc3c2)n1` [17a)]: half-maximal inhibition in data set [1] (IC50) was put at 19 nM.

`CC(C)(C)c1ccc(NC(=O)c2cccc3cc(Oc4ccnc(N)n4)ccc23)cc1` [17b)] displayed an IC50 in data set [1] of 54 nM.

`CNc1cc(Oc2ccc3c(c2)OCCN3C(=O)Nc2ccc(C)c(C(F)(F)F)c2)ncn1` [Example 8, 7-(6-Methylamino-pyrimidin-4-yloxy)-2,3-dihydro-benzo[1,4]oxazine-4-carboxylic acid (4-methyl-3-trifluoromethyl-phenyl)-amide] gave a melting point of 180 to 182 °C. The IC50 in data set [1] was 46 nM.

On to `CNc1cc(Oc2ccc3c(c2)OCCN3C(=O)Nc2cccc(C(F)(F)F)c2)ncn1` [Example 9, 7-(6-Methylamino-pyrimidin-4-yloxy)-2,3-dihydro-benzo[1,4]oxazine-4-carboxylic acid (3-trifluoromethyl-phenyl)-amide], for which the melting point is 180 °C. Further, the IC50 in data set [1] came out at 29 nM.

For the molecule `Nc1nccc(Oc2ccc3c(c2)OCCN3C(=O)Nc2cccc(C(F)(F)F)c2)n1` [Example 10, 7-(2-Amino-pyrimidin-4-yloxy)-2,3-dihydro-benzo[1,4]oxazine-4-carboxylic acid (3-trifluoromethyl-phenyl)-amide], the melting point was 161 to 163 °C. In data set [1], this molecule showed an IC50 of 37 nM.

For the molecule `Cc1ccc(NC(=O)c2cccc3cc(Oc4ccnc(N)n4)ccc23)cc1C(F)(F)F` [Example 15, 6-(2-Amino-pyrimidin-4-yloxy)-naphthalene-1-carboxylic acid (4-methyl-3-trifluoromethyl-phenyl)-amide], 20 nM corresponded to half-maximal inhibition in data set [1] (IC50).

Regarding `CC(=O)Nc1nccc(Oc2ccc3c(C(=O)Nc4cccc(C(F)(F)F)c4)cccc3c2)n1` [Example 18, 6-(2-Acetylamino-pyrimidin-4-yloxy)-naphthalene-1-carboxylic acid (3-trifluoromethyl-phenyl)-amide], the melting point lay in the range of 216 to 217 °C. This molecule showed an IC50 in data set [1] of 21 nM.

`CC(=O)Nc1nccc(Oc2ccc3c(c2)OCCN3C(=O)Nc2ccc(C)c(C(F)(F)F)c2)n1` [Example 20, 7-(2-Acetylamino-pyrimidin-4-yloxy)-2,3-dihydro-benzo[1,4]oxazine-4-carboxylic acid (4-methyl-3-trifluoromethyl-phenyl)-amide] showed an IC50 in data set [1] of 24 nM.

Molecule `COC(=O)Nc1nccc(Oc2ccc3c(c2)OCCN3C(=O)Nc2ccc(C)c(C(F)(F)F)c2)n1` [Example 21, 7-(2-Methoxycarbonylamino-pyrimidin-4-yloxy)-2,3-dihydro-benzo[1,4]oxazine-4-carboxylic acid (4-methyl-3-trifluoromethyl-phenyl)-amide] came in with an IC50 in data set [1] of 19 nM.

`CN1CCN(Cc2ccc(NC(=O)N3CCOc4cc(Oc5ccnc(N)n5)ccc43)cc2C(F)(F)F)CC1` [Example 22, 7-(2-Amino-pyrimidin-4-yloxy)-2,3-dihydro-benzo[1,4]oxazine-4-carboxylic acid [4-(4-methyl-piperazin-1-ylmethyl)-3-trifluoromethyl-phenyl]-amide] came in with an IC50 in data set [1] of 96 nM.

As to `Nc1nccc(Oc2ccc3c(C(=O)Nc4cccc(C(F)(F)F)c4)cccc3c2)n1` [formula Ip], the Permeation rate in data set [2] (setting [4]), in data set [2] (setting [5]) and in data set [3] was below 2 ng/mL/h each time. The figures for the Skin concentration in data set [2] (setting [4]), in data set [2] (setting [5]) and in data set [3] were 4.4 ± 3.1 µg/g, 4.7 ± 2.9 µg/g and 6.2 ± 1.5 µg/g, respectively.
